# Measurements taken from PubChem BioAssay AID2060504 (Molecular Pharmacology Branch, DTP, NCI, 2025).
# Tested on: 636577-100-R-J1-PDC complex spheroid viability
# Test: Anticancer human tumor 636577-100-R-J1-PDC patient-derived endometrial adenocarcinoma cell line growth inhibition [GQUAD]
# Conditions: for IC50: curve of first compound; for viability, T/C: stronger effect = lower value
# Description: DNA G-quadruplex Stabilizer Agents in Combinations in Complex Spheroids
# A high-throughput screen of multi-cell type tumor spheroids was designed to identify active combinations of DNA G-quadruplex stabilizer agents and targeted small molecules. Complex spheroids include a stromal component modeled by human endothelial cells (HUVEC) and fibroblasts modeled by human mesenchymal stem cells (MSCs). The concentration ranges selected for each drug and investigational agent were based upon clinically achievable concentrations if the clinical Cmax of the agent was known.
# Compounds. The drugs and investigational agents: pidnarulex (CX-5461; NSC782164), APTO-253 (NSC789042), BRACO-19 (NSC847499), peposertib (NSC802822), ceralasertib (NSC780249), elimusertib (NSC800525), camonsertib (NSC841442), AZD-1390 (NSC803789), olaparib (NSC753686), talazoparib (NSC767125), ART-558 (NSC835418), sotorasib (NSC818433), MRTX-1133 (NSC836407), SN-38 (NSC673596), topotecan (NSC609699), etoposide (NSC141540), doxorubicin (NSC123127), gemcitabine (NSC613327), 5-fluorouracil (NSC19893), paclitaxel (NSC125973), vemurafenib (NSC761431), panobinostat (NSC761190), R-306465 (JNJ-16241199; NSC773264), adavosertib (NSC754352), TP-3654 (NSC805149), carboplatin (NSC241240), KSQ-4279 (NSC840948), and staurosporine (NSC755774) were obtained from the National Cancer Institute (NCI) Developmental Therapeutics Program Chemical Repository (34). The FDA-approved anticancer drug set is available from the NCI Developmental Therapeutics Program. […] The stock solutions were prepared in dimethyl sulfoxide (DMSO, Sigma-Aldrich, St. Louis, MO, cat. D2650) at 800-fold the tested concentration and stored at -70 degrees C prior to their use. All drugs and investigational agents were tested over a range starting from a high concentration at or near the clinical Cmax and decreasing in half-log increments. If the clinical Cmax for an agent had not been determined, the highest concentration tested was 10 microM.
# 2.3 Cell Culture. All cells were maintained in an incubator at 37 degrees C and 5% CO2 with 95% humidity. The PDC lines were cultured according to standard operating procedures established by the NCI PDMR. All PDCs were thawed and cultured in Matrigel-coated flasks prepared with a working solution of 1X Ham's F-12 nutrient mix, without supplementation (Invitrogen, cat. 11765054), 100 U/mL penicillin-streptomycin (Invitrogen, cat. 15140122), and 2.5% Matrigel (Corning Inc., cat. 354248) for the first three passages. The 857933-349-R-J2-PDC line was cultured in 6C/Colon 1B media, which includes advanced DMEM/F-12 (Thermo Fisher Scientific, cat. 12634028), 10 mM HEPES (Thermo Fisher Scientific, cat. 15630080), 1X GlutaMAX supplement (Thermo Fisher Scientific, cat. 35050061), 0.1 mg/mL primocin (InvivoGen, cat. ant-pm-2), 10% defined fetal bovine serum, heat inactivated (HyClone Laboratories Inc., cat. SH30070.03HI), 50% L-WRN conditioned media (ATCC, cat. CRL-3276), 1.25 mM N-Acetyl-L-cysteine (Sigma-Aldrich, cat. A9165), 10 mM nicotinamide (Sigma-Aldrich, cat. N0636), 1X B-27 supplement (Thermo Fisher Scientific, cat. 17504044), 1X N-2 supplement (Thermo Fisher Scientific, cat. 17502048), 10 microM Y-27632 dihydrochloride (Tocris Bioscience, cat. 1254), and 50 ng/mL human EGF recombinant protein (Thermo Fisher Scientific, cat. PHG0311). The 485176-168-R4-J1-PDC line was cultured in Panc media, which includes all 6C/Colon 1B media components plus 100 ng/mL human FGF-10 (Thermo Fisher Scientific, cat. 100-26), 500 nM SB-431542 (Selleckchem, cat. S1067), and gastrin (Tocris, cat. 3006).
# […]
# 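Note: viability read after seven days of drug exposure.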
# 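Throughout, for viability, T/C: luminescence signal used as a proxy for viable cells; 100% = DMSO vehicle control wells.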
smiles,measurement,setting,value
CCCS(=O)(=O)Nc1ccc(F)c(C(=O)c2c[nH]c3ncc(-c4ccc(Cl)cc4)cc23)c1F + CN(C)c1ccc(Nc2c3ccc(NC(=O)CCN4CCCC4)cc3nc3cc(NC(=O)CCN4CCCC4)ccc23)cc1,IC50,second compound 0.0316 µM,6.7 µM
same,IC50,second compound 0.1 µM,6.47 µM
same,IC50,second compound 0.316 µM,6.63 µM
same,IC50,second compound 1 µM,6.62 µM
same,IC50,second compound 3.16 µM,< 0.0316 µM
same,IC50,second compound 10 µM,< 0.0316 µM
same,"viability, T/C","second compound 0.0316 µM, first compound 0.0316 µM",101%
same,"viability, T/C","second compound 0.0316 µM, first compound 0.1 µM",98.1%
same,"viability, T/C","second compound 0.0316 µM, first compound 0.316 µM",118%
same,"viability, T/C","second compound 0.0316 µM, first compound 1 µM",59.4%
same,"viability, T/C","second compound 0.0316 µM, first compound 3.16 µM",87.2%
same,"viability, T/C","second compound 0.0316 µM, first compound 10 µM",35.4%
same,"viability, T/C","second compound 0.1 µM, first compound 0.0316 µM",96.4%
same,"viability, T/C","second compound 0.1 µM, first compound 0.1 µM",79.3%
same,"viability, T/C","second compound 0.1 µM, first compound 0.316 µM",89.1%
same,"viability, T/C","second compound 0.1 µM, first compound 1 µM",73.1%
same,"viability, T/C","second compound 0.1 µM, first compound 3.16 µM",80.4%
same,"viability, T/C","second compound 0.1 µM, first compound 10 µM",32.8%
same,"viability, T/C","second compound 0.316 µM, first compound 0.0316 µM",82.4%
same,"viability, T/C","second compound 0.316 µM, first compound 0.1 µM",83%
same,"viability, T/C","second compound 0.316 µM, first compound 0.316 µM",80.2%
same,"viability, T/C","second compound 0.316 µM, first compound 1 µM",69.2%
same,"viability, T/C","second compound 0.316 µM, first compound 3.16 µM",74.9%
same,"viability, T/C","second compound 0.316 µM, first compound 10 µM",37.6%
same,"viability, T/C","second compound 1 µM, first compound 0.0316 µM",79.3%
same,"viability, T/C","second compound 1 µM, first compound 0.1 µM",69.8%
same,"viability, T/C","second compound 1 µM, first compound 0.316 µM",78.9%
same,"viability, T/C","second compound 1 µM, first compound 1 µM",89.8%
same,"viability, T/C","second compound 1 µM, first compound 3.16 µM",77.7%
same,"viability, T/C","second compound 1 µM, first compound 10 µM",34.5%
same,"viability, T/C","second compound 3.16 µM, first compound 0.0316 µM",35.7%
same,"viability, T/C","second compound 3.16 µM, first compound 0.1 µM",47.9%
same,"viability, T/C","second compound 3.16 µM, first compound 0.316 µM",47.1%
same,"viability, T/C","second compound 3.16 µM, first compound 1 µM",43%
same,"viability, T/C","second compound 3.16 µM, first compound 3.16 µM",40.6%
same,"viability, T/C","second compound 3.16 µM, first compound 10 µM",18.5%
same,"viability, T/C","second compound 10 µM, first compound 0.0316 µM",5.58%
same,"viability, T/C","second compound 10 µM, first compound 0.1 µM",6.42%
same,"viability, T/C","second compound 10 µM, first compound 0.316 µM",6.13%
same,"viability, T/C","second compound 10 µM, first compound 1 µM",6.09%
same,"viability, T/C","second compound 10 µM, first compound 3.16 µM",4.83%
same,"viability, T/C","second compound 10 µM, first compound 10 µM",1.82%
